Data as given in patent US20260325533A1, “CDK INHIBITOR COMPOUNDS” (ALEKSIA THERAPEUTICS, INC., priority 2023, published 2026).
Like-named read-outs stand apart in the source and are kept apart here.

Tests used:
Format in all cases: biochemical
CDK2/CCNE1 = CDK2/CCNE1 (Homo sapiens, UniProt P24941); experiment: CDK2 homogeneous time-resolved fluorescence (HTRF) kinase assay; conditions: CDK2/CCNE
In short: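 TR-FRET read-out (665 nm, or 665/615 ratio) of Eu-antibody detection of phospho-4E-BP1 (Thr37/46) ULight peptide. Enzyme 3 nM, ATP 1 mM, peptide 50 nM, 1% DMSO; 60 min reaction at 23 °C after 20 min compound preincubation. IC50 from 11-point half-log titrations, top typically 10 μM.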

CDK1/CCNB1 = CDK1/CCNB1 (Homo sapiens, UniProt P06493); experiment: CDK1 homogeneous time-resolved fluorescence (HTRF) kinase assay; conditions: CDK1/CCNB
In short: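 CDK1/CCNB1 0.5 nM + cpd, 20 min 23 °C; add 1 mM ATP, 50 nM ULight-4E-BP1 peptide, 60 min 23 °C; stop 10 mM EDTA; 2 nM Eu-Ab, 60 min; HTRF 665 nm. 11-pt half-log, top 10 μM typical; IC50.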

CDK4/CCND3 = CDK4/CCND3 (Homo sapiens, UniProt P11802); experiment: CDK4 homogeneous time-resolved fluorescence (HTRF) kinase assay; conditions: CDK4/CCND
In short: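 HTRF kinase assay, CDK4/CCND3 1.5 nM, ATP 1 mM, ULight-4E-BP1 peptide 50 nM, 23 °C, 60 min reaction after 20 min preincubation. Eu-anti-pThr37/46 antibody detection. 11-pt half-log curves from 10 μM → IC50.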

CDK6/CCND1 = CDK6/CCND1 (Homo sapiens, UniProt Q00534); experiment: CDK6 homogeneous time-resolved fluorescence (HTRF) kinase assay; conditions: CDK6/CCND
In short: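 Recombinant CDK6/CCND1 (1 nM final) was preincubated with compound for 20 min at 23 °C in HEPES buffer with MgCl2, EGTA, DTT and Tween 20. Kinase reaction then ran 60 min at 23 °C with 1 mM ATP and 50 nM ULight-4E-BP1 (Thr37/46) peptide, and was stopped with EDTA.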

[1] = <25 nM, read-out: CDK2/CCNE IC50, <25 nM
[2] = 25-250 nM, read-out: CDK1/CCNB IC50, 25-250 nM
[3] = 25-250 nM, read-out: CDK4/CCND IC50, 25-250 nM
[4] = 25-250 nM, 1 mM ATP, read-out: CDK6/CCND IC50, 25-250 nM
[5] = x = IC50 <25 nM, read-out: CDK2/CCNE IC50 (<25 nM)
[6] = x = IC50 >250 nM, read-out: CDK1/CCNB IC50 (>250 nM column)
[7] = x = IC50 >250 nM, read-out: CDK4/CCND IC50 (>250 nM column)
[8] = x = IC50 >250 nM, read-out: CDK6/CCND IC50 (>250 nM column)
[9] = 25-250 nM marked x, read-out: CDK2/CCNE IC50 25-250 nM
[10] = >250 nM marked x, read-out: CDK1/CCNB IC50 >250 nM
[11] = >250 nM marked x, read-out: CDK4/CCND IC50 >250 nM
[12] = >250 nM marked x, read-out: CDK6/CCND IC50 >250 nM
[13] = 25-250 nM, read-out: CDK2/CCNE IC50, 25-250 nM
[14] = >250 nM, read-out: CDK1/CCNB IC50 >250 nM
[15] = >250 nM, read-out: CDK4/CCND IC50, >250 nM
[16] = >250 nM, 1 mM ATP, read-out: CDK6/CCND IC50, >250 nM
[17] = <25 nM, read-out: CDK2/CCNE IC50 <25 nM
[18] = 25-250 nM marked x, read-out: CDK4/CCND IC50 25-250 nM
[19] = 25-250 nM marked x, read-out: CDK6/CCND IC50 25-250 nM
[20] = 25-250 nM marked x, read-out: CDK1/CCNB IC50 25-250 nM
[21] = x = IC50 25-250 nM, read-out: CDK2/CCNE IC50 (25-250 nM)
[22] = <25 nM, read-out: CDK4/CCND IC50 <25 nM

Chain of CDK4/CCND3 (P11802 whole entry): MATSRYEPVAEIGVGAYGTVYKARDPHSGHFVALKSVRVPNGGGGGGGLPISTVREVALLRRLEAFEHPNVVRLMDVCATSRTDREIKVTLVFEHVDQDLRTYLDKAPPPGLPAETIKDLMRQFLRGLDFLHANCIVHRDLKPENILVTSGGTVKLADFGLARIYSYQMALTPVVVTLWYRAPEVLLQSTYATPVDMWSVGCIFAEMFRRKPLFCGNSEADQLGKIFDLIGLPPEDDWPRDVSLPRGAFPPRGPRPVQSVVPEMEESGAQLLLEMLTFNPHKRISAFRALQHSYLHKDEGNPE
Chain of CDK4/CCND3 (P30281 whole entry partner): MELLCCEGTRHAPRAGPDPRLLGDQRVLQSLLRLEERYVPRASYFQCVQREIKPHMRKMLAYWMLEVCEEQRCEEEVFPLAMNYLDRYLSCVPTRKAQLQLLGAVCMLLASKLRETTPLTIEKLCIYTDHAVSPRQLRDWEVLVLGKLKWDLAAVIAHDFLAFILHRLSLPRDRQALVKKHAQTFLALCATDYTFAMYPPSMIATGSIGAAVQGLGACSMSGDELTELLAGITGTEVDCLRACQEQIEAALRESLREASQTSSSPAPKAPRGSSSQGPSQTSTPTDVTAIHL
Chain of CDK1/CCNB1 (P06493 whole entry): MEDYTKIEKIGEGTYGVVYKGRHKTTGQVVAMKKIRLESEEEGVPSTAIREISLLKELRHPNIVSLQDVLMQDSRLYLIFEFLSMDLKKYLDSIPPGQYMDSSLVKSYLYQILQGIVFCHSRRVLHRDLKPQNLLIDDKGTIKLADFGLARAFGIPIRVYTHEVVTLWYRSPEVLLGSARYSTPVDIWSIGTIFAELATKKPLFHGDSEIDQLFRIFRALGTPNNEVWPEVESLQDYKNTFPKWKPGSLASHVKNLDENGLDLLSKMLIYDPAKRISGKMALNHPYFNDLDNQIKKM
Chain of CDK1/CCNB1 (P14635 whole entry partner): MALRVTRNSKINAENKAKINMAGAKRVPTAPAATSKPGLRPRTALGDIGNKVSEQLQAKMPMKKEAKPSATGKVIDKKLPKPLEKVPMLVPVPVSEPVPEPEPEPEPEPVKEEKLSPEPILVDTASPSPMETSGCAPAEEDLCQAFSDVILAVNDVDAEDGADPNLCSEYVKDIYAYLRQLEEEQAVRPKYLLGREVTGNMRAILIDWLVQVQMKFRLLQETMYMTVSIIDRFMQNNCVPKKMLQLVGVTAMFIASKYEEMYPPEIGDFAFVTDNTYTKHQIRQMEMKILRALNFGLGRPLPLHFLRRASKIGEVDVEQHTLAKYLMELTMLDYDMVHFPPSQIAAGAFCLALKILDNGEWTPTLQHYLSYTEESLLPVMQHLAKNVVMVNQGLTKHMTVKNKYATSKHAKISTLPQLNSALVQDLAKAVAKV
Chain of CDK6/CCND1 (Q00534 whole entry): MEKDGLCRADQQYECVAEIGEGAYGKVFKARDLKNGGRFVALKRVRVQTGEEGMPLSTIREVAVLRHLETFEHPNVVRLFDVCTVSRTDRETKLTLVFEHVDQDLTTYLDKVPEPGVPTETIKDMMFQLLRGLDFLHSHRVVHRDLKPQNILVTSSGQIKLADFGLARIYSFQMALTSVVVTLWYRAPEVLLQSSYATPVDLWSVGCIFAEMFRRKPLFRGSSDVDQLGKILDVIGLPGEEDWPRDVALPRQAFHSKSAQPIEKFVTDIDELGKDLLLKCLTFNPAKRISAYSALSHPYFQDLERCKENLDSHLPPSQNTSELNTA
Chain of CDK6/CCND1 (P24385 whole entry partner): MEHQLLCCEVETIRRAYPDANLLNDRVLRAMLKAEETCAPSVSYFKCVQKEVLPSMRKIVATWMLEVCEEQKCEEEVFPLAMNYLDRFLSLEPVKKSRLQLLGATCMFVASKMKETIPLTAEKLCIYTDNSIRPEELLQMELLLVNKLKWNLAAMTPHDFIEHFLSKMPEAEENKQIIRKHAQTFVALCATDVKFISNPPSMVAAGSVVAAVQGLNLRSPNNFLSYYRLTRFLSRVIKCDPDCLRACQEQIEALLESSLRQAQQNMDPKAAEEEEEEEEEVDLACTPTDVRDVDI

## CNS(=O)(=O)c1ccc(Nc2cc3c(-c4ccc5c(cnn5CC(C)(C)O)c4C)nccc3cn2)cc1 [Ex 796, 4-((5-(1-(2-hydroxy-2-methylpropyl)-4-methyl-1H-indazol-5-yl)-2,6-naphthyridin-3-yl)amino)-N-methylbenzenesulfonamide]
CDK2/CCNE1; [1]
  IC50: < 25 nM
CDK1/CCNB1; [2]
  IC50: 25 to 250 nM
CDK4/CCND3; [3]
  IC50: 25 to 250 nM
CDK6/CCND1; [4]
  IC50: 25 to 250 nM

## Nc1ncccc1C#Cc1nccc2cnc(Nc3ccc(S(=O)(=O)NC4CCOCC4)cc3)cc12 [Ex 434, 4-((5-((2-aminopyridin-3-yl)ethynyl)-2,6-naphthyridin-3-yl)amino)-N-(tetrahydro-2H-pyran-4-yl)benzenesulfonamide]
CDK2/CCNE1; [5]
  IC50: < 25 nM
CDK1/CCNB1; [6]
  IC50: > 250 nM
CDK4/CCND3; [7]
  IC50: > 250 nM
CDK6/CCND1; [8]
  IC50: > 250 nM

## C=CS(=O)(=O)c1ccc(Nc2cc3c(-c4ccc5[nH]ncc5c4C)nccc3cn2)cc1 [Ex 245, 5-(4-methyl-1H-indazol-5-yl)-N-(4-(vinylsulfonyl)phenyl)-2,6-naphthyridin-3-amine]
CDK2/CCNE1; [9]
  IC50: 25 to 250 nM
CDK1/CCNB1; [10]
  IC50: > 250 nM
CDK4/CCND3; [11]
  IC50: > 250 nM
CDK6/CCND1; [12]
  IC50: > 250 nM

## Cc1c(-c2nccc3cnc(Nc4ccc(S(=O)(=O)O)cc4)cc23)ccc2c1cnn2CC(C)(C)O [Ex 925, 4-((5-(1-(2-hydroxy-2-methylpropyl)-4-methyl-1H-indazol-5-yl)-2,6-naphthyridin-3-yl)amino)benzenesulfonic acid]
CDK2/CCNE1; [13]
  IC50: 25 to 250 nM
CDK1/CCNB1; [14]
  IC50: > 250 nM
CDK4/CCND3; [15]
  IC50: > 250 nM
CDK6/CCND1; [16]
  IC50: > 250 nM

## COc1cc(Nc2cc3c(-c4ccc5c(cnn5CC(C)(C)O)c4C)nccc3cn2)ccc1S(C)(=O)=O [Ex 837, 1-(5-(7-((3-methoxy-4-(methylsulfonyl)phenyl)amino)-2,6-naphthyridin-1-yl)-4-methyl-1H-indazol-1-yl)-2-methylpropan-2-ol]
CDK2/CCNE1; [13]
  IC50: 25 to 250 nM
CDK1/CCNB1; [14]
  IC50: > 250 nM
CDK4/CCND3; [15]
  IC50: > 250 nM
CDK6/CCND1; [16]
  IC50: > 250 nM

## CS(=O)(=O)N1CCC(Nc2cc3c(-c4cc[nH]c4)nccc3cn2)CC1 [Ex 90, N-(1-(methylsulfonyl)piperidin-4-yl)-5-(1H-pyrrol-3-yl)-2,6-naphthyridin-3-amine]
CDK2/CCNE1; [17]
  IC50: < 25 nM
CDK1/CCNB1; [10]
  IC50: > 250 nM
CDK4/CCND3; [18]
  IC50: 25 to 250 nM
CDK6/CCND1; [19]
  IC50: 25 to 250 nM

## CS(=O)(=O)c1ccc(Nc2cc3c(C#Cc4ccc(CCO)cc4)nccc3cn2)cc1 [Ex 652, 2-(4-((7-((4-(methylsulfonyl)phenyl)amino)-2,6-naphthyridin-1-yl)ethynyl)phenyl)ethan-1-ol]
CDK2/CCNE1; [5]
  IC50: < 25 nM
CDK1/CCNB1; [6]
  IC50: > 250 nM
CDK4/CCND3; [7]
  IC50: > 250 nM
CDK6/CCND1; [8]
  IC50: > 250 nM

## CC(C)S(=N)(=O)c1ccc(Nc2cc3c(C#Cc4ccc5c(c4)NC(=O)C5(C)CO)nccc3cn2)cc1 (single isomer, unassigned) [Example 328, 3-(hydroxymethyl)-3-methyl-6-((7-((4-(propan-2-ylsulfonimidoyl)phenyl)amino)-2,6-naphthyridin-1-yl)ethynyl)indolin-2-one]
CDK2/CCNE1; [17]
  IC50: < 25 nM
CDK1/CCNB1; [20]
  IC50: 25 to 250 nM
CDK4/CCND3; [18]
  IC50: 25 to 250 nM
CDK6/CCND1; [12]
  IC50: > 250 nM

## COc1ccc(C#Cc2nccc3cnc(Nc4ccc(S(C)(=O)=O)cc4)cc23)c(C)c1 [Ex 527, 5-((4-methoxy-2-methylphenyl)ethynyl)-N-(4-(methylsulfonyl)phenyl)-2,6-naphthyridin-3-amine]
CDK2/CCNE1; [21]
  IC50: 25 to 250 nM
CDK1/CCNB1; [6]
  IC50: > 250 nM
CDK4/CCND3; [7]
  IC50: > 250 nM
CDK6/CCND1; [8]
  IC50: > 250 nM

## COc1cc(NS(=O)(=O)c2ccc(Nc3cc4c(-c5ccc6c(cnn6CC(O)(C(F)(F)F)C(F)(F)F)c5C)nccc4cn3)cc2)nc(N2CCOCC2)c1 [Ex 703, N-(4-methoxy-6-morpholinopyridin-2-yl)-4-((5-(4-methyl-1-(3,3,3-trifluoro-2-hydroxy-2-(trifluoromethyl)propyl)-1H-indazol-5-yl)-2,6-naphthyridin-3-yl)amino)benzenesulfonamide]
CDK2/CCNE1; [13]
  IC50: 25 to 250 nM
CDK1/CCNB1; [14]
  IC50: > 250 nM
CDK4/CCND3; [15]
  IC50: > 250 nM
CDK6/CCND1; [16]
  IC50: > 250 nM

## CC#Cc1nccc2cnc(Nc3ccc(S(=O)(=O)Nc4nccc(N5CCOCC5)n4)cc3)cc12 [Ex 878, N-(4-morpholinopyrimidin-2-yl)-4-((5-(prop-1-yn-1-yl)-2,6-naphthyridin-3-yl)amino)benzenesulfonamide]
CDK2/CCNE1; [13]
  IC50: 25 to 250 nM
CDK1/CCNB1; [14]
  IC50: > 250 nM
CDK4/CCND3; [15]
  IC50: > 250 nM
CDK6/CCND1; [16]
  IC50: > 250 nM

## CS(=O)(=O)c1ccc(Nc2cc3c(C#Cc4n[nH]c5ccccc45)nccc3cn2)cc1 [Ex 573, 5-((1H-indazol-3-yl)ethynyl)-N-(4-(methylsulfonyl)phenyl)-2,6-naphthyridin-3-amine]
CDK2/CCNE1; [21]
  IC50: 25 to 250 nM
CDK1/CCNB1; [6]
  IC50: > 250 nM
CDK4/CCND3; [7]
  IC50: > 250 nM
CDK6/CCND1; [8]
  IC50: > 250 nM

## Cc1ccc(S(=O)(=O)Nc2ccc(Nc3cc4c(-c5ccc6c(cnn6CC(C)(C)O)c5C)nccc4cn3)cc2)cn1 [Ex 823, N-(4-((5-(1-(2-hydroxy-2-methylpropyl)-4-methyl-1H-indazol-5-yl)-2,6-naphthyridin-3-yl)amino)phenyl)-6-methylpyridine-3-sulfonamide]
CDK2/CCNE1; [1]
  IC50: < 25 nM
CDK1/CCNB1; [2]
  IC50: 25 to 250 nM
CDK4/CCND3; [3]
  IC50: 25 to 250 nM
CDK6/CCND1; [4]
  IC50: 25 to 250 nM

## COc1cc(C#Cc2nccc3cnc(Nc4ccc(S(C)(=O)=O)cc4)cc23)ccc1F [Ex 912, 5-((4-fluoro-3-methoxyphenyl)ethynyl)-N-(4-(methylsulfonyl)phenyl)-2,6-naphthyridin-3-amine]
CDK2/CCNE1; >250 nM, read-out: CDK2/CCNE IC50, >250 nM
  IC50: > 250 nM
CDK1/CCNB1; [14]
  IC50: > 250 nM
CDK4/CCND3; [15]
  IC50: > 250 nM
CDK6/CCND1; [16]
  IC50: > 250 nM

## CS(=O)(=O)c1ccc(Nc2cc3c(C#Cc4n[nH]c5ncccc45)nccc3cn2)cc1 [Ex 561, 5-((1H-pyrazolo[3,4-b]pyridin-3-yl)ethynyl)-N-(4-(methylsulfonyl)phenyl)-2,6-naphthyridin-3-amine]
CDK2/CCNE1; [21]
  IC50: 25 to 250 nM
CDK1/CCNB1; [6]
  IC50: > 250 nM
CDK4/CCND3; [7]
  IC50: > 250 nM
CDK6/CCND1; [8]
  IC50: > 250 nM

## CS(=O)(=O)N1CCC(Nc2cc3c(C#Cc4ccc(C#N)cc4)nccc3cn2)CC1 [Ex 251, 4-((7-((1-(methylsulfonyl)piperidin-4-yl)amino)-2,6-naphthyridin-1-yl)ethynyl)benzonitrile]
CDK2/CCNE1; [17]
  IC50: < 25 nM
CDK1/CCNB1; [10]
  IC50: > 250 nM
CDK4/CCND3; [22]
  IC50: < 25 nM
CDK6/CCND1; [19]
  IC50: 25 to 250 nM

## O=C(NC1CCSC1=O)c1ccc(Nc2cc3c(C4=CCCCC4)nccc3cn2)cc1 (racemic) [Ex 114, 4-((5-(cyclohex-1-en-1-yl)-2,6-naphthyridin-3-yl)amino)-N-(2-oxotetrahydrothiophen-3-yl)benzamide]
CDK2/CCNE1; [17]
  IC50: < 25 nM
CDK1/CCNB1; [20]
  IC50: 25 to 250 nM
CDK4/CCND3; [22]
  IC50: < 25 nM
CDK6/CCND1; <25 nM, read-out: CDK6/CCND IC50 <25 nM
  IC50: < 25 nM

## Cc1c(-c2nccc3cnc(Nc4ccc(S(=O)(=O)NC5CCOC5)cc4)cc23)ccc2c1cnn2CC(C)(C)O (racemic) [Ex 770, 4-((5-(1-(2-hydroxy-2-methylpropyl)-4-methyl-1H-indazol-5-yl)-2,6-naphthyridin-3-yl)amino)-N-(tetrahydrofuran-3-yl)benzenesulfonamide]
CDK2/CCNE1; [1]
  IC50: < 25 nM
CDK1/CCNB1; [14]
  IC50: > 250 nM
CDK4/CCND3; [3]
  IC50: 25 to 250 nM
CDK6/CCND1; [4]
  IC50: 25 to 250 nM

## Cc1nc(-c2nccc3cnc(Nc4ccc(S(C)(=O)=O)cc4)cc23)no1 [Ex 167, 5-(5-methyl-1,2,4-oxadiazol-3-yl)-N-(4-(methylsulfonyl)phenyl)-2,6-naphthyridin-3-amine]
CDK2/CCNE1; [9]
  IC50: 25 to 250 nM
CDK1/CCNB1; [10]
  IC50: > 250 nM
CDK4/CCND3; [11]
  IC50: > 250 nM
CDK6/CCND1; [12]
  IC50: > 250 nM
